Tests used:
[1] = biological target: Human recombinant KAT II protein (Homo sapiens, UniProt Q8N5Z0); assay: KAT II activity, human recombinant protein ([3H]-kynurenine to [3H]-KYNA); type: biochemical
Experimental: (§1) For the measurement of KAT II activity, 100 μl of partially purified rat liver enzyme were incubated (2 hrs, 37° C.) with 100 μl of 150 mM Tris-acetate (pH 7.0), 2 μM (2.5 nCi) [^3H]-kynurenine, 1 mM pyruvate and 80 μM pyridoxal-5′-phosphate. Blanks were obtained using denatured protein preparations. The reaction was terminated by the addition of […] of 30% (w/v) trichloroacetic acid. 1 ml of 0.1 M HCl was added, and the denatured protein was removed by centrifugation. 1 ml of the supernatant was applied to a Dowex 50 W H^+cation exchange column, which was then washed with 1 ml of 0.1 M HCl, followed by 1 ml of ultrapure water. [^3H]-KYNA was subsequently eluted with 2×1 ml of ultrapure water, and radioactivity was quantified by liquid scintillation spectrometry. Human recombinant KAT II protein was also used to measure KAT II activity as described above.
(§2) Test compounds were added in 20 μl aliquots at the beginning of the incubation period to examine interference with enzyme activity.

Kynurenine 3-hydroxylase = biological target: T1, Kynurenine 3-hydroxylase (Rattus norvegicus, UniProt O88867); assay: Kynurenine 3-hydroxylase activity in rat liver homogenate; type: biochemical
T1 construct: determined in rat liver homogenate; from tissue; host or cells: rat liver homogenate
Experimental: (§3) Kynurenine 3-hydroxylase and kynureninase activities were determined in rat liver homogenate according to established procedures (see Anal. Biochem., 205:257-62, 1992 and Neuroscience., 61:237-43, 1994 for methodology).

[2] = biological target: T2, KAT II (partially purified rat liver enzyme) (Rattus norvegicus, UniProt Q64602); assay: KAT II activity, partially purified rat liver enzyme ([3H]-kynurenine to [3H]-KYNA); type: biochemical
T2 construct: partially purified rat liver enzyme; from tissue; host or cells: rat liver
Experimental: as §1, §2

[3] = test system: extracellular kynurenic acid (KYNA) and dopamine (DA) levels in prefrontal cortex; assay: In vivo reverse dialysis / microdialysis in rat prefrontal cortex; conditions: 1 mM into prefrontal cortex for 2 hours by reverse dialysis, FIG. 2
Experimental: Microdialysis was performed in the prefrontal cortex of unanesthetized male rats (200-220 g) according to established procedures (see Eur. J. Neurosci., 4:1264-70, 1992 for methodology).
Compound (A) was also tested in the rat brain in vivo. Briefly, a concentration of 1 mM Compound (A) was introduced into the prefrontal cortex for 2 hours by reverse dialysis. A detailed description of this method can be found in J Neurosci Res 85(4):845-54, 2007 (Ceresoli-Borroni G, Guidetti P, Amori L, Pellicciari R, Schwarcz R).

Kynureninase = biological target: T3, Kynureninase (Rattus norvegicus, UniProt P70712); assay: Kynureninase activity in rat liver homogenate; type: biochemical
T3 construct: determined in rat liver homogenate; from tissue; host or cells: rat liver homogenate
T3 sequence (P70712 1-464): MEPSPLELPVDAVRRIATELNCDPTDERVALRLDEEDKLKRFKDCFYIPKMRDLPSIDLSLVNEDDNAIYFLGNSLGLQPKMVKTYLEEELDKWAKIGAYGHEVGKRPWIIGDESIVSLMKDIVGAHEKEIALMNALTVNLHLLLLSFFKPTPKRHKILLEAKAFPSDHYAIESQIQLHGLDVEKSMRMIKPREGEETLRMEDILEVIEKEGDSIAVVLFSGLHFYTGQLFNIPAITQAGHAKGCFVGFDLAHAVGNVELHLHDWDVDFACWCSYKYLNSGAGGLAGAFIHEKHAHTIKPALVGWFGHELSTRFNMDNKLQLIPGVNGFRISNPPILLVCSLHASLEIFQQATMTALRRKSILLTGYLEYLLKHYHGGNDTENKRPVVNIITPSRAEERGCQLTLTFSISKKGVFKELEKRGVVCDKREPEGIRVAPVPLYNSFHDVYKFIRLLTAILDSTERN
Experimental: as §3

[4] = test system: KYNA production in rat brain tissue slices; assay: De novo production of KYNA in rat brain tissue slices; type: cell-based; conditions: 6 hr at 37 degrees, FIG. 1
Experimental: The ability of Compound (A) to inhibit the de novo production of KYNA in rat brain tissue slices was also tested. A 2 μM concentration of Compound (A) was assayed as described by Gramsbergen J B, Hodgkins P S, Rassoulpour A, Turski W A, Guidetti P, Schwarcz R., (J. Neurochem., 69:290, 1997). Briefly, an aliquot of the original tissue homogenate was further diluted (1:5, v/v) in a buffer containing 5 mM Tris acetate (pH 8.0), 50 μM pyridoxal-5′-phosphate and 10 mM 2-mercapto-ethanol, and dialyzed overnight at 4 degrees. The reaction mixture containing 150 mM Tris-acetate buffer (pH 7.0), 2 μM L-kynurenine, 1 mM pyruvate, 80 μM pyridoxal-5′-phosphate and 80 μL dialysate in a total volume of […] was incubated w/wo Compound (A) for 6 hr at 37 degrees. The reaction was terminated by adding […] of 50% (w/v) trichloracetic acid and KYNA levels were measured using reverse-phase HPLC with fluorescence detection (excitation, 344 nm; emission, 398 nm).

Chain of Human recombinant KAT II protein (Q8N5Z0 30-425): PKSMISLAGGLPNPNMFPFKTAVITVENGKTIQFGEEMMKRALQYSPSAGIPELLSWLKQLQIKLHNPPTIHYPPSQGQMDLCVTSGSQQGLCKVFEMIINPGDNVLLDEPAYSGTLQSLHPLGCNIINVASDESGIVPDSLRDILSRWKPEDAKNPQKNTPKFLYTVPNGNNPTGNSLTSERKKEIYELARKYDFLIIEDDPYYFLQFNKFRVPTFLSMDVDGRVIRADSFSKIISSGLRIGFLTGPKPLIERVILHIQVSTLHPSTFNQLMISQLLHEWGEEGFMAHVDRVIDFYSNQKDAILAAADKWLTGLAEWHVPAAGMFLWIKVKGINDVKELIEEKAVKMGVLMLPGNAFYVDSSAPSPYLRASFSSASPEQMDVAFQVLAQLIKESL
T1 sequence (O88867 whole entry): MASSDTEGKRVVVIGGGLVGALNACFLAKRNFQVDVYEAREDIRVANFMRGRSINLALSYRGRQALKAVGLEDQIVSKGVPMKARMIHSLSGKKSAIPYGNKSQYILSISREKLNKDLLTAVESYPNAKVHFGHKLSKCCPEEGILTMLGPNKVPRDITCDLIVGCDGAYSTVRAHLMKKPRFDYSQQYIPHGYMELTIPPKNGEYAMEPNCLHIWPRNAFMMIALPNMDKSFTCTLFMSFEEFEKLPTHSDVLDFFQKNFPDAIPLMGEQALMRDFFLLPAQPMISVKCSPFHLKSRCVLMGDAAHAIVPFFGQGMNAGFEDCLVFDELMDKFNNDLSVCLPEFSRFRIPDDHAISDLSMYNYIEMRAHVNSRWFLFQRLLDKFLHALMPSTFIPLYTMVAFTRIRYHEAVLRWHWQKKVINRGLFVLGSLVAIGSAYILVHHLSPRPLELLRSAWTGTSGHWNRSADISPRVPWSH
T2 sequence (Q64602 30-425): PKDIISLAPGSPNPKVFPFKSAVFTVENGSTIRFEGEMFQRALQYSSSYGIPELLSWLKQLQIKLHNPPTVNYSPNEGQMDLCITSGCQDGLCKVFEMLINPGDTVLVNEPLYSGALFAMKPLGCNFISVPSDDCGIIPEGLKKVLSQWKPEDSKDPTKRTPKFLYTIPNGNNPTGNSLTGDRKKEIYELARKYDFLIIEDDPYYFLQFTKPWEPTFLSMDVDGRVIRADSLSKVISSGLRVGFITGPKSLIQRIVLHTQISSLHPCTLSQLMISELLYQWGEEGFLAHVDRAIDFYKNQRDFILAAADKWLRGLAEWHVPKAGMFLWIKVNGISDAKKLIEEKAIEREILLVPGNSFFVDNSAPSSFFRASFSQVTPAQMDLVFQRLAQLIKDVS

For `C[C@H]1COc2c(N3CCN(N)CC3)c(F)cc3c(=O)c(C(=O)O)cn1c23.O=C(O)C(F)(F)F` [Compound (A), (S)-(−)-9-(4-Aminopiperazin-1-yl)-8-fluoro-3-methyl-6-oxo-2,3-dihydro-6H-1-oxa-3a-aza-phenalene-5-carboxylic acid trifluoroacetate], the IC50 ([1]; human recombinant protein) was 0.2 µM, the “times more active against human KAT II than against rat KAT II” value ([1]; human vs rat KAT II) was 10 times and the “times more active than UPF 874 as a KAT II inhibitor in humans” value ([1]; relative to UPF 874) was 3000 times. The IC50 (Kynurenine 3-hydroxylase) was greater than 1000 µM, the IC50 [2] was 2 µM and the “increase of extracellular dopamine (DA) levels” value [3] was greater than 2.5 fold. The “reduction of extracellular kynurenic acid (KYNA) levels” value [3] was roughly 40%, the IC50 (Kynureninase) was greater than 2000 µM and the “inhibition of de novo production of KYNA from L-kynurenine” value [4] was “dose-dependently inhibit”.

From US20100273787A1, “KYNURENINE-AMINOTRANSFERASE INHIBITORS” (priority 2007, published 2010)
